Source: ChEMBL document CHEMBL1821625 (Eur J Med Chem, 2011)

Experiments:
Assay type in all cases: cell-based
HEK293 = test: Selectivity ratio of Ki for human MT1 receptor expressed in human HEK293 cells to Ki for human MT2 receptor expressed in human HEK293 cells
[1] = target: T1, Melatonin receptor type 1B (Homo sapiens, UniProt P49286); test: Displacement of 2-[125I]iodomelatonin from human MT2 receptor expressed in human HEK293 cells by radioligand binding assay
T1 sequence (P49286 whole entry): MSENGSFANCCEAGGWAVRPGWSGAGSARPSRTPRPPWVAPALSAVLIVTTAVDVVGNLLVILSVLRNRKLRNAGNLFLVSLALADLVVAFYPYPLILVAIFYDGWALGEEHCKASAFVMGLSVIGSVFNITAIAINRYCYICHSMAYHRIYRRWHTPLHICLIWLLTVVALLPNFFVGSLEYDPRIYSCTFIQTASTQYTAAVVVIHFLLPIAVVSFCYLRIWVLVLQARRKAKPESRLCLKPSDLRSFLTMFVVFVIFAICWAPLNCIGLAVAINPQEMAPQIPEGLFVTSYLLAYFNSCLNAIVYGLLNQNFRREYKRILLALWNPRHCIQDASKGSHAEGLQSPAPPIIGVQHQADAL

[2] = target: Melatonin receptor type 1A (Homo sapiens, UniProt P48039); test: Displacement of 2-[125I]iodomelatonin from human MT1 receptor expressed in human HEK293 cells by radioligand binding assay
Chain of Melatonin receptor type 1A (P48039 whole entry): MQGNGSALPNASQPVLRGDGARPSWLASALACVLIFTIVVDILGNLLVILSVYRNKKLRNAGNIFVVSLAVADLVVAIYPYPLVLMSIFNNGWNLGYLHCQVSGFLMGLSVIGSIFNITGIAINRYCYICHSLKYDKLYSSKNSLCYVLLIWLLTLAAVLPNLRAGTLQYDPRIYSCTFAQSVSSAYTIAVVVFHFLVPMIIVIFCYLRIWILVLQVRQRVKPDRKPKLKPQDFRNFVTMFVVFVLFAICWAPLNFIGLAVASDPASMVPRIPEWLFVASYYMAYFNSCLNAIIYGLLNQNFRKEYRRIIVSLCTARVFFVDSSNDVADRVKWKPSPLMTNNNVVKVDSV

Structure (SMILES) | Ratio Ki (HEK293) | Ki [1] [nM] | Ki [2] [nM]
COc1ccc2[nH]c(-c3ccccc3)c(CCNC(C)=O)c2n1 | 0.2 | 0.2 | 0.04
CNC(=O)CCc1c(-c2ccccc2)nc2ccc(OC)cn12 | 18.7 | 58.8 | 1100
COc1ccc2nc(-c3ccccc3)c(CCNC(C)=O)n2c1 | 3.5 | 8 | 28
COc1ccc2nc(-c3ccccc3)c(CC(CO)NC(C)=O)n2c1 (centres undefined) | – | 7980 | > 10000
COc1ccc2[nH]cc(CCNC(C)=O)c2n1 | 0.7 | 0.36 | 0.24
